Test results from patent US10273226B2, “Pyrazolyl-heteroarylamides as pesticides” (Bayer Animal Health GmbH, priority 2014, dated 2019).

These compounds were tested on Ctenocephalides felis (assay: Ctenocephalides felis in vitro contact test with adult cat fleas). Conditions: application rate 5 μg/cm^2 (500 g/ha); after 48 h; fleas dead or moribund.
Assay type: in vivo
In short: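 Test tubes were coated with 250 μl acetone solution of compound, giving 5 μg/cm^2 at 900 ppm, then dried and stocked with 5-10 adult cat fleas. After 48 h at room temperature and ambient humidity, dead or moribund fleas were counted; efficacy given as % (100% = all dead or moribund).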
Cn1nc(C(F)(F)C(F)(F)F)c(C(F)(F)F)c1-n1cc(-c2cccc(NC(=O)c3ccccc3F)c2)cn1 [Example 1-012] was tested, and the efficacy was 100%.
For Cn1nc(C(F)(F)C(F)(F)F)c(C(F)(F)F)c1-n1cc(-c2cccc(NC(=O)c3ccnc(Cl)c3)c2)cn1 [Example 1-006], the efficacy was 100%.

These compounds were tested on Rhipicephalus sanguineus (assay: Rhipicephalus sanguineus in vitro contact test with adult brown dog ticks). Conditions: application rate 1 μg/cm^2 (100 g/ha); after 48 h; ticks dead or moribund.
Assay type: in vivo
In short: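 Test tubes (25 ml) were coated by dissolving active ingredient in acetone p.a., diluting to the required concentration, and spreading 250 μl over the inner walls and base on an orbital shaker at 30 rpm for 2 h. Once dry, 5-10 adult Rhipicephalus sanguineus were added, and tubes were capped with perforated lids and kept horizontal in darkness at room temperature. At 48 h, ticks were knocked down and heated at 45-50° C. for up to 5 min. Those unable to climb away were counted dead or moribund, and efficacy ran from 0% to 100%.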
Work on Cn1nc(C(F)(F)C(F)(F)F)c(C(F)(F)F)c1-n1cc(-c2ccc(F)c(NC(=O)C(F)(F)C(F)F)c2)cn1 [Example 1-033] yielded an efficacy of 100%.

Same assay, conditions: application rate 5 μg/cm^2 (500 g/ha); after 48 h; ticks dead or moribund
In the case of Cn1nc(C(F)(F)C(F)(F)F)c(C(F)(F)F)c1-n1cc(-c2cccc(NC(=O)C(F)(F)C(F)F)c2)cn1 [Example 1-009], the efficacy is reported as 100%.
Compound Cn1nc(C(F)(F)C(F)(F)F)c(C(F)(F)F)c1-n1cc(-c2cccc(NC(=O)c3ccccc3F)c2)cn1 [Example 1-012] has an efficacy of 100%.

Each compound was assayed on Boophilus microplus (assay: Boophilus microplus injection test). Conditions: application rate 20 μg/animal; injection into abdomen; assessed after 7 days.
Assay type: in vivo
In short: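 Engorged adult female ticks, five per dose, were injected in the abdomen with 1 μl of active ingredient diluted in dimethyl sulphoxide. Animals were kept in dishes under climate control, and egg fertility was assessed after 7 days.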
Cn1nc(C(F)(F)C(F)(F)F)c(C(F)(F)F)c1-n1cc(-c2ccc(F)c(NC(=O)C(F)(F)C(F)F)c2)cn1 [Example 1-033] was tested, and the “efficacy (laying of fertile eggs)” value was 100%.
In the case of Cn1nc(C(F)(F)C(F)(F)F)c(C(F)(F)F)c1-n1cc(-c2cccc(NC(=O)C(F)(F)C(F)F)c2)cn1 [Example 1-009], the “efficacy (laying of fertile eggs)” value is reported as 100%.
Cn1nc(C(F)(F)C(F)(F)F)c(C(F)(F)F)c1-n1cc(-c2cccc(NC(=O)c3ccccc3F)c2)cn1 [Example 1-012] was tested, and the “efficacy (laying of fertile eggs)” value was 100%.
Cn1nc(C(F)(F)C(F)(F)F)c(C(F)(F)F)c1-n1cc(-c2cccc(NC(=O)c3ccnc(Cl)c3)c2)cn1 [Example 1-006] was tested, and the “efficacy (laying of fertile eggs)” value was 100%.

These compounds were tested on Ctenocephalides felis (assay: Ctenocephalides felis oral test). Conditions: application rate 100 ppm in citrated cattle blood; after 2 days.
Assay type: in vivo
In short: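 About 20 unfed adult cat fleas fed through a parafilm membrane on citrated cattle blood containing compound, dosed from a DMSO stock. Kill in % scored after 2 days; 100% means all fleas dead.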
In the case of Cn1nc(C(F)(F)C(F)(F)F)c(C(F)(F)F)c1-n1cc(-c2ccc(F)c(NC(=O)C(F)(F)C(F)F)c2)cn1 [Example 1-033], the “efficacy (kill in %)” value is reported as 100%.
In the case of Cn1nc(C(F)(F)C(F)(F)F)c(C(F)(F)F)c1-n1cc(-c2cccc(NC(=O)C(F)(F)C(F)F)c2)cn1 [Example 1-009], the “efficacy (kill in %)” value is reported as 100%.
With Cn1nc(C(F)(F)C(F)(F)F)c(C(F)(F)F)c1-n1cc(-c2cccc(NC(=O)c3ccccc3F)c2)cn1 [Example 1-012] the “efficacy (kill in %)” value was 100%.
Cn1nc(C(F)(F)C(F)(F)F)c(C(F)(F)F)c1-n1cc(-c2cccc(NC(=O)c3ccnc(Cl)c3)c2)cn1 [Example 1-006] was tested, and the “efficacy (kill in %)” value was 100%.

Each compound was assayed on Lucilia cuprina (assay: Lucilia cuprina test). Conditions: application rate 100 ppm; L1 larvae; after 2 days.
Assay type: in vivo
In short: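 About 20 L1 larvae placed in vessels with minced horsemeat treated with compound (DMSO concentrate diluted in water) at the desired concentration. Kill (%) scored after 2 days; 100% means all larvae dead, 0% none.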
For Cn1nc(C(F)(F)C(F)(F)F)c(C(F)(F)F)c1-n1cc(-c2ccc(F)c(NC(=O)C(F)(F)C(F)F)c2)cn1 [Example 1-033], the “efficacy (kill in %)” value was 100%.
In the case of Cn1nc(C(F)(F)C(F)(F)F)c(C(F)(F)F)c1-n1cc(-c2cccc(NC(=O)C(F)(F)C(F)F)c2)cn1 [Example 1-009], the “efficacy (kill in %)” value is reported as 100%.
With Cn1nc(C(F)(F)C(F)(F)F)c(C(F)(F)F)c1-n1cc(-c2cccc(NC(=O)c3ccccc3F)c2)cn1 [Example 1-012] the “efficacy (kill in %)” value was 100%.
With Cn1nc(C(F)(F)C(F)(F)F)c(C(F)(F)F)c1-n1cc(-c2cccc(NC(=O)c3ccnc(Cl)c3)c2)cn1 [Example 1-006] the “efficacy (kill in %)” value was 100%.

These compounds were tested on Musca domestica (assay: Musca domestica test). Conditions: application rate 100 ppm; adult houseflies; after 2 days.
Assay type: in vivo
Procedure: Solvent: dimethyl sulphoxide
To produce an appropriate active ingredient formulation, 10 mg of active ingredient are mixed with 0.5 ml of dimethyl sulphoxide, and the concentrate is diluted with water to the desired concentration.
Vessels containing a sponge treated with sugar solution and the active ingredient formulation of the desired concentration are populated with 10 adult houseflies (Musca domestica).
After 2 days, the kill in % is determined. 100% means that all of the flies have been killed; 0% means that none of the flies have been killed.
In the case of Cn1nc(C(F)(F)C(F)(F)F)c(C(F)(F)F)c1-n1cc(-c2cccc(NC(=O)c3ccnc(Cl)c3)c2)cn1 [Example 1-006], the “efficacy (kill in %)” value is reported as 100%.

Each compound was assayed on Myzus persicae (assay: Myzus persicae spray test). Conditions: application rate 100 g/ha; after 6 days.
Assay type: in vivo
Procedure: Myzus persicae—Spray Test
To produce an appropriate active ingredient formulation, 1 part by weight of active ingredient is dissolved using the specified parts by weight of solvent and made up with water containing an emulsifier concentration of 1000 ppm until the desired concentration is attained. To produce further test concentrations, the preparation is diluted with emulsifier-containing water.
Discs of Chinese cabbage leaves (Brassica pekinensis) infested by all stages of the green peach aphid (Myzus persicae) are sprayed with an active ingredient formulation of the desired concentration.
After 6 days, efficacy in % is determined. 100% means that all the aphids have been killed; 0% means that none of the aphids have been killed.
In the case of Cn1nc(C(F)(F)C(F)(F)F)c(C(F)(F)F)c1-n1cc(-c2ccc(F)c(NC(=O)C(F)(F)C(F)F)c2)cn1 [Example 1-033], the efficacy is reported as 90%.
Cn1nc(C(F)(F)C(F)(F)F)c(C(F)(F)F)c1-n1cc(-c2cccc(NC(=O)C(F)(F)C(F)F)c2)cn1 [Example 1-009] showed an efficacy of 100%.
Compound Cn1nc(C(F)(F)C(F)(F)F)c(C(F)(F)F)c1-n1cc(-c2cccc(NC(=O)c3ccccc3F)c2)cn1 [Example 1-012] has an efficacy of 90%.
In the case of Cn1nc(C(F)(F)C(F)(F)F)c(C(F)(F)F)c1-n1cc(-c2cccc(NC(=O)c3ccnc(Cl)c3)c2)cn1 [Example 1-006], the efficacy is reported as 100%.

Each compound was assayed on Phaedon cochleariae (assay: Phaedon cochleariae spray test). Conditions: application rate 100 g/ha; larvae; after 7 days.
Assay type: in vivo
In short: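 Chinese cabbage leaf discs were sprayed with the compound formulated in water containing 1000 ppm emulsifier. After drying, they were infested with mustard beetle larvae. Efficacy was scored as % larvae killed after 7 days (100% = all dead, 0% = none).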
Cn1nc(C(F)(F)C(F)(F)F)c(C(F)(F)F)c1-n1cc(-c2ccc(F)c(NC(=O)C(F)(F)C(F)F)c2)cn1 [Example 1-033] was tested, and the efficacy was 83%.
Cn1nc(C(F)(F)C(F)(F)F)c(C(F)(F)F)c1-n1cc(-c2cccc(NC(=O)c3ccccc3F)c2)cn1 [Example 1-012] showed an efficacy of 100%.
Work on Cn1nc(C(F)(F)C(F)(F)F)c(C(F)(F)F)c1-n1cc(-c2cccc(NC(=O)c3ccnc(Cl)c3)c2)cn1 [Example 1-006] yielded an efficacy of 100%.

Same assay, conditions: application rate 500 g/ha; larvae; after 7 days
Cn1nc(C(F)(F)C(F)(F)F)c(C(F)(F)F)c1-n1cc(-c2cccc(NC(=O)C(F)(F)C(F)F)c2)cn1 [Example 1-009] was tested, and the efficacy was 100%.

These compounds were tested on Spodoptera frugiperda (assay: Spodoptera frugiperda spray test). Conditions: application rate 100 g/ha; caterpillars; after 7 days.
Assay type: in vivo
In short: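 Maize leaf discs were sprayed with compound formulated in solvent plus water containing 1000 ppm emulsifier, dried, then infested with Spodoptera frugiperda caterpillars. Efficacy in % mortality was scored after 7 days (100% all killed, 0% none).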
Work on Cn1nc(C(F)(F)C(F)(F)F)c(C(F)(F)F)c1-n1cc(-c2cccc(NC(=O)c3ccccc3F)c2)cn1 [Example 1-012] yielded an efficacy of 100%.
With Cn1nc(C(F)(F)C(F)(F)F)c(C(F)(F)F)c1-n1cc(-c2cccc(NC(=O)c3ccnc(Cl)c3)c2)cn1 [Example 1-006] the efficacy was 100%.

Same assay, conditions: application rate 500 g/ha; caterpillars; after 7 days
Cn1nc(C(F)(F)C(F)(F)F)c(C(F)(F)F)c1-n1cc(-c2cccc(NC(=O)C(F)(F)C(F)F)c2)cn1 [Example 1-009] gave an efficacy of 100%.

What follows are compounds tested on Tetranychus urticae (assay: Tetranychus urticae spray test, OP-resistant). Conditions: application rate 100 g/ha; after 6 days.
Assay type: in vivo
In short: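 Bean leaf discs (Phaseolus vulgaris) carrying all stages of OP-resistant mites are sprayed with compound formulated in solvent and emulsifier-containing water. Efficacy (% mites killed) is scored after 6 days.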
Work on Cn1nc(C(F)(F)C(F)(F)F)c(C(F)(F)F)c1-n1cc(-c2ccc(F)c(NC(=O)C(F)(F)C(F)F)c2)cn1 [Example 1-033] yielded an efficacy of 100%.
Cn1nc(C(F)(F)C(F)(F)F)c(C(F)(F)F)c1-n1cc(-c2cccc(NC(=O)c3ccccc3F)c2)cn1 [Example 1-012] showed an efficacy of 100%.
In the case of Cn1nc(C(F)(F)C(F)(F)F)c(C(F)(F)F)c1-n1cc(-c2cccc(NC(=O)c3ccnc(Cl)c3)c2)cn1 [Example 1-006], the efficacy is reported as 100%.

Same assay, conditions: application rate 500 g/ha; after 6 days
In the case of Cn1nc(C(F)(F)C(F)(F)F)c(C(F)(F)F)c1-n1cc(-c2cccc(NC(=O)C(F)(F)C(F)F)c2)cn1 [Example 1-009], the efficacy is reported as 100%.
